{
  "source": "patent US12150922B1",
  "about": "“Methods of inhibiting cyclooxygenase (COX) using tolterodine” (priority 2023, dated 2024)",
  "key": {"[1]": {"target": "T1, COX-2 (Homo sapiens, UniProt P35354)", "T1 construct": "purchased Cayman Chemical (Ann Arbor, MI, USA)", "T1 sequence (P35354 18-604)": "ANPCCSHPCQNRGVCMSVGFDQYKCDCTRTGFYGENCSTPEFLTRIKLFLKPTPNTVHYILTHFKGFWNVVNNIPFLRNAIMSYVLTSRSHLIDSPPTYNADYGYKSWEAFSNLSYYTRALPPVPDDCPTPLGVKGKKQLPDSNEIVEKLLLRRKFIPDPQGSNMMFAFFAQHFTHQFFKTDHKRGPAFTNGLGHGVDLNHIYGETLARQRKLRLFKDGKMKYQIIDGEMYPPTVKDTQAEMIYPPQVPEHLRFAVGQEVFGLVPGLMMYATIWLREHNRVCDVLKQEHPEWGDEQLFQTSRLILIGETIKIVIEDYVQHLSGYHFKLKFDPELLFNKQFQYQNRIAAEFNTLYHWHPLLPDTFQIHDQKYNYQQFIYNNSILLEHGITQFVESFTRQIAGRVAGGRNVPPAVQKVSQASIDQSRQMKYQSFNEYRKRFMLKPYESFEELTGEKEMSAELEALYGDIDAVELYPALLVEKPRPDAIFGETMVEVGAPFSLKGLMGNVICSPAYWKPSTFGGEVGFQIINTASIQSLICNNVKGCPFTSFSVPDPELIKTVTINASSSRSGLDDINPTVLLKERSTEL", "assay": "biochemical", "excerpt": "(§1) The Schrodinger Maestro molecular modeling suite (Schrodinger LLC, New York, USA) was utilized for all stages of virtual screening modeling. QikProp software tools offer a fast, accurate, and user-friendly approach for predicting molecular characteristics. This software evaluates a given molecule's properties and compares them with those of substances present in 95% of commonly prescribed drugs. A series of graded filters is employed to identify potential interactions within the active site of the receptor and the ligand. This process involves constructing a grid with varying field sets that accurately score the ligand poses while simultaneously depicting the structure and attributes of the receptor. COX-1 and COX-2 inhibitor screening assay kits were obtained from Cayman Chemical (Ann Arbor, MI, USA).\n(§2) The inhibitory effects of tolterodine on COX-1 and COX-2 were determined using COX inhibitor screening test kits, testing each compound's capacity to inhibit the conversion of arachidonic acid to prostaglandin. In test tubes, 25 mM Tris-HCl, pH 8.0, containing 5 mM EDTA, phenol, and 1 mM hematin was added. Tolterodine was dissolved in DMSO and added in concentrations ranging from […]. […]\n(§3) Three separate experiments were used to calculate the IC50 values. The selectivity index was calculated as follows: Selectivity Index (SI)=IC50 COX-1/IC50 COX-2"}, "[2]": {"target": "COX-1 (UniProt P05979)", "sequence (P05979 whole entry)": "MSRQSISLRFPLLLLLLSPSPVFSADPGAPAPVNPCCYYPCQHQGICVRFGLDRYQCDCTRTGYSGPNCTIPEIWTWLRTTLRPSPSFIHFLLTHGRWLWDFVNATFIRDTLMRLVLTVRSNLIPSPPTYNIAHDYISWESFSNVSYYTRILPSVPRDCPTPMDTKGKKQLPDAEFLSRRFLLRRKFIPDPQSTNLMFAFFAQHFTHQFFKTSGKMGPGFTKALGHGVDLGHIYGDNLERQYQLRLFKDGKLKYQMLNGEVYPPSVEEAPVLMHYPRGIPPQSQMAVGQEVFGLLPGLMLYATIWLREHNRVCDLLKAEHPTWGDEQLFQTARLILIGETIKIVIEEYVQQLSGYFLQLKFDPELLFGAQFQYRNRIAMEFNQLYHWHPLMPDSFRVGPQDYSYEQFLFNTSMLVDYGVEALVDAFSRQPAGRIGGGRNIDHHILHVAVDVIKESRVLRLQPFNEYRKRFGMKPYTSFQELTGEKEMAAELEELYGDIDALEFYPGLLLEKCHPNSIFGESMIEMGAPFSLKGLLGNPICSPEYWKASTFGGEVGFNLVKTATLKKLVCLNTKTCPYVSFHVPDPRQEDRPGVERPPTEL", "type": "biochemical", "settings": "conversion of arachidonic acid to prostaglandin; 10 min preincubation at 37° C.; three separate experiments", "excerpt": "as §1, §2, §3"}},
  "note": "Where “and” joins values, the source holds several entries; their conditions need not be identical. Equal entries are not always repeated.",
  "data": [
    {"smiles": "Cc1ccc(O)c([C@H](CCN(C(C)C)C(C)C)c2ccccc2)c1", "note": "[Tolterodine]", "values": [
      {"measurement": "SI (Selectivity Index = IC50 COX-1/IC50 COX-2)", "setting": "[1]", "value": 14.3},
      {"measurement": "IC50", "setting": "[1]; conversion of arachidonic acid to prostaglandin, 10 min preincubation at 37° C., three separate experiments", "value": "~0.32 µM and 0.32 µM"},
      {"measurement": "IC50", "setting": "[2]", "value": "~4.53 µM and 4.53 µM"}
    ]}
  ]
}
